This assay deals with Rattus norvegicus. Put plainly: Neuroprotective activity (1 mg/kg) administered intravenously was evaluated in rat model of focal cerebral ischemia induced by permanent occlusion of the middle cerebral artery(MCA). Format: functional.

Turning to `OC(CN1CCC(Cc2ccc(F)cc2)CC1)c1ccc(Cl)cc1` (racemic) [ELIPRODIL], the Infarct volume amounted to 33.3 mm³.

In turn, `O[C@@H](CN1CCC(Cc2ccc(F)cc2)CC1)c1ccc(Cl)cc1` showed an Infarct volume of 37.7 mm³.

Compound `O[C@H](CN1CCC(Cc2ccc(F)cc2)CC1)c1ccc(Cl)cc1` showed an Infarct volume of 58.9 mm³.

The values are drawn from ChEMBL document CHEMBL1128848, “The asymmetric synthesis of both enantiomers of eliprodil” (1995).
